Measurements from US20100021505A1, “Composition and method to prevent or reduce diarrhea and steatorrhea in HIV patients” (priority 2008, published 2010).
Entries after “also recorded” stand apart in the source; their conditions may differ.

Legend:
[1] = tested on: pancrelipase; test: Pancrelipase reactivation by colipase; type: biochemical; conditions: for % Lipase Activity with Colipase: colipase 5 μg/mL; for effect of added colipase on the inhibition of pancrelipase (in words): excess colipase added to reaction mixture
Experimental: In brief, the above lipase assay procedure was used with the following variation: colipase solution replaced the distilled water so the concentration of colipase in the final reaction mixture was 5 μg/mL.

[2] = tested on: HIV patients; conditions: Kakuda et al. 1998; cited from earlier work
[3] = target: T1, pancrelipase (Sus scrofa, UniProt P00591); test: Lipase assay (USP titrimetric): inhibition of pancrelipase by HAART drugs and excipients; type: biochemical
T1 sequence (P00591 1-450): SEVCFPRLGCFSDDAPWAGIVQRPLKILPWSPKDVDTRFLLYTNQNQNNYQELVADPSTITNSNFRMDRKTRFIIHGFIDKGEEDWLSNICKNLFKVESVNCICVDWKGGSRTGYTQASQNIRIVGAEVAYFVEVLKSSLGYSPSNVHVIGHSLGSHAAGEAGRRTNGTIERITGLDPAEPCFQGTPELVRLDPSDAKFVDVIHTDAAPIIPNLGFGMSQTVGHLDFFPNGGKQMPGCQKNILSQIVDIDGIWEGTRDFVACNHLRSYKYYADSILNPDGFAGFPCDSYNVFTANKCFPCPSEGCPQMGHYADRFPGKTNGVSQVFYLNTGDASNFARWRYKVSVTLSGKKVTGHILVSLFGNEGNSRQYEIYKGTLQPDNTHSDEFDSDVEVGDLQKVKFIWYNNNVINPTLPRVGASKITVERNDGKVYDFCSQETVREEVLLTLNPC
Experimental: The enzyme sources consisted of USP Reference Standard Pancrelipase, USP Reference Standard Trypsin, colipase (Sigma Chemical Co.), and enterokinase (ICN Biochemicals). Appropriate concentrations of enzyme reference standard were prepared in cold distilled water, as described in USP reference assay procedures. The Infectious Disease Clinic in Somerville, N.J. provided the HAART medications. Pure drugs could not be obtained so commercial drug preparations were used in the assays.
One unit (U) of lipase activity is defined as the amount of enzyme that liberates one μequivalent of free fatty acid from triglycerides per minute at pH 9.0 and 37° C. Lipase activity (U/mg) was determined by a lipase specific titrimetric assay described in the United States Pharmacopeia (USP), Volume XXII. In brief, the substrate consists of 10% olive oil in acacia solution, 40-mg/mL sodium taurocholate, 0.075M calcium chloride, 0.05M Tris in 3.0M NaCl buffer solution (pH 7.5) and distilled water. The emulsified substrate is incubated at 37° C. and brought to pH 9.0 with 0.02N NaOH. At time zero, 1.0 mL of enzyme solution was added. A pH stat autotitrator was used to maintain pH 9.0 and the volume of 0.02 N NaOH dispensed per unit time was recorded for five (5) minutes. From the initial slope of this plot, lipase activity was calculated using the following equation: […]

[4] = tested on: pancrelipase; test: Recovery of pancrelipase activity after inhibition, by addition of excess lipase; type: biochemical
Experimental: The above procedure was used to monitor pancrelipase activity with the exception that drug was not preincubated with the substrate. At time zero 1.0 mL of pancrelipase was added to initiate the reaction. At five (5) minutes, 1.0 mL of HAART drug solution was added to the reaction mixture to cause inhibition of lipase activity. At twelve (12) minutes an additional 1.0 mL of pancrelipase was added to the reaction mixture to overcome HAART inhibition. The reaction was monitored for twenty (20) minutes.

Row | Molecule | % Lipase Activity No Colipase ([1]; Drug Conc. 0.002 mg/mL) | % Lipase Activity with Colipase ([1]; Drug Conc. 0.002 mg/mL) | effect of added colipase on the inhibition of pancrelipase (in words) [1] | HIV patients experiencing diarrhea [2] | % Lipase Activity No Colipase ([1]; Drug Conc. 10.0 mg/mL) | % Lipase Activity with Colipase ([1]; Drug Conc. 10.0 mg/mL) | inhibition of pancrelipase (in words) [3] | % Pancrelipase Activity ([4]; after addition of drug solution at 5 minutes, before excess lipase) | % Reactivation of Pancrelipase ([4]; after additional 1.0 mL of pancrelipase at 12 minutes)
1 | CCCCCCCCCCC[C@@H](C[C@@H]1OC(=O)[C@H]1CCCCCC)OC(=O)[C@H](CC(C)C)NC=O [ORLISTAT ®, reference compound] | 37% | 29% | no effect |  |  |  |  |  | 
2 | Cc1c(O)cccc1C(=O)N[C@@H](CSc1ccccc1)[C@H](O)CN1C[C@H]2CCCC[C@H]2C[C@H]1C(=O)NC(C)(C)C [nelfinavir, Nelfinavir] |  |  |  | 12-20% |  |  |  |  | 
3 | D-α-tocopheryl polyethylene glycol 1000 succinate [TPGS] |  |  | Pancrelipase inhibition was reversed; also recorded: restored pancrelipase activity |  | 21% | 79% | significant inhibition; also recorded: significantly inhibited | 55% | 98%
